Measured values: US20220323406A1, “METHODS AND COMPOSITIONS FOR DIFFERENTIATING STEM CELLS” (Massachusetts Institute of Technology, priority 2019, published 2022)
Structures can show the parent of a compound that is named as a salt.

Experiments:
[1] = tested on: ENR+CD organoids (ISC to Paneth cell differentiation); assay: Primary screen: basal (non-stimulated) lysozyme secretion LYZ.NS, 2.5-D 384-well ENR+CD organoid differentiation; format: cell-based, mouse
Source text: (§1) High-throughput screening.

ENR+CD organoids = assay: Primary screen: ATP (CellTiter-Glo 3D, CTG) cell number/viability, 2.5-D 384-well ENR+CD organoids;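 also: compounds given at plating and again on day 3 over a 6-day differentiation from ENR+CV stem-cell-enriched precursors, ATP measured on day 6, plate median as control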
[2] = tested on: ENR+CD organoids (ISC to Paneth cell differentiation); assay: Primary screen: CCh-stimulated lysozyme secretion LYZ.S, 2.5-D 384-well ENR+CD organoid differentiation; format: cell-based, mouse; details: primary screen
Source text: as §1

[3] = primary screen, standard z score, dose 0.08 uM
[4] = primary screen, standard z score, dose 0.40 uM
[5] = primary screen, standard z score, dose 2.00 uM
[6] = primary screen, standard z score, dose 10.00 uM
[7] = primary screen, dose 0.08 uM, FC relative to plate median
[8] = primary screen, dose 0.08 uM, standard z score
[9] = primary screen, dose 0.40 uM, FC relative to plate median
[10] = primary screen, dose 0.40 uM, standard z score
[11] = primary screen, dose 2.00 uM, FC relative to plate median
[12] = primary screen, dose 2.00 uM, standard z score
[13] = primary screen, dose 10.00 uM, FC relative to plate median
[14] = primary screen, dose 10.00 uM, standard z score
[15] = primary screen; dose 0.08 uM; FC vs plate median
[16] = primary screen; dose 0.40 uM; FC vs plate median
[17] = primary screen; dose 2.00 uM; FC vs plate median
[18] = primary screen; dose 10.00 uM; FC vs plate median

Compound: CC(C)c1cc(-c2n[nH]c(=O)n2-c2ccc3c(ccn3C)c2)c(O)cc1O [Ganetespib (STA-9090)]
- Dose.FC.LYZ.NS ([1]; primary screen, dose 0.08 uM): −0.141 log2 fold change
- Dose.FC.LYZ.NS ([1]; primary screen, dose 0.40 uM): −0.155 log2 fold change
- Dose.FC.LYZ.NS ([1]; primary screen, dose 2.00 uM): −0.150 log2 fold change
- Dose.FC.LYZ.NS ([1]; primary screen, dose 10.00 uM): −0.136 log2 fold change
- Z.LYZ.NS [1, 3]: −1.226
- Z.LYZ.NS [1, 4]: −1.345
- Z.LYZ.NS [1, 5]: −1.309
- Z.LYZ.NS [1, 6]: −1.181
- Dose.FC.CTG (ENR+CD organoids; primary screen, dose 0.08 uM): −1.450 log2 fold change
- Dose.FC.CTG (ENR+CD organoids; primary screen, dose 0.40 uM): −2.105 log2 fold change
- Dose.FC.CTG (ENR+CD organoids; primary screen, dose 2.00 uM): −1.721 log2 fold change
- Dose.FC.CTG (ENR+CD organoids; primary screen, dose 10.00 uM): −1.620 log2 fold change
- Z.CTG (ENR+CD organoids; [3]): −3.465
- Z.CTG (ENR+CD organoids; [4]): −5.027
- Z.CTG (ENR+CD organoids; [5]): −4.110
- Z.CTG (ENR+CD organoids; [6]): −3.871
- Dose.FC.LYZ.S ([2]; dose 0.08 uM): −0.260 log2 fold change
- Dose.FC.LYZ.S ([2]; dose 0.40 uM): −0.250 log2 fold change
- Dose.FC.LYZ.S ([2]; dose 2.00 uM): −0.260 log2 fold change
- Dose.FC.LYZ.S ([2]; dose 10.00 uM): −0.267 log2 fold change

Compound: CN[C@H]1CC[C@@H](c2ccc(Cl)c(Cl)c2)c2ccccc21 [Sertraline HCl]
- Dose.FC.LYZ.NS [1, 7]: −0.026 log2 fold change
- Z.LYZ.NS [1, 8]: −0.227
- Dose.FC.LYZ.NS [1, 9]: −0.082 log2 fold change
- Z.LYZ.NS [1, 10]: −0.714
- Dose.FC.LYZ.NS [1, 11]: 0.052 log2 fold change
- Z.LYZ.NS [1, 12]: 0.450
- Dose.FC.LYZ.NS [1, 13]: −0.005 log2 fold change
- Z.LYZ.NS [1, 14]: −0.044
- Dose.FC.CTG (ENR+CD organoids; [7]): −0.079 log2 fold change
- Dose.FC.CTG (ENR+CD organoids; [9]): 0.087 log2 fold change
- Dose.FC.CTG (ENR+CD organoids; [11]): 0.066 log2 fold change
- Dose.FC.CTG (ENR+CD organoids; [13]): 0.043 log2 fold change
- Dose.FC.LYZ.S ([2]; dose 0.08 uM, FC relative to plate median): −0.048 log2 fold change
- Dose.FC.LYZ.S ([2]; dose 0.40 uM, FC relative to plate median): −0.076 log2 fold change
- Dose.FC.LYZ.S ([2]; dose 2.00 uM, FC relative to plate median): 0.023 log2 fold change
- Dose.FC.LYZ.S ([2]; dose 10.00 uM, FC relative to plate median): −0.021 log2 fold change

Compound: Cc1cnc(-c2cc(N3CCN(C(=O)CCS(C)(=O)=O)CC3)ncc2Cl)c(C)c1 [PF-5274857]
- Z.LYZ.NS [1, 8]: 0.683
- Z.LYZ.NS [1, 10]: −0.256
- Z.LYZ.NS [1, 12]: 0.094
- Z.LYZ.NS [1, 14]: 0.642
- Dose.FC.LYZ.NS [1, 15]: 0.078 log2 fold change
- Dose.FC.LYZ.NS [1, 16]: −0.029 log2 fold change
- Dose.FC.LYZ.NS [1, 17]: 0.011 log2 fold change
- Dose.FC.LYZ.NS [1, 18]: 0.074 log2 fold change
- Z.CTG (ENR+CD organoids; [8]): −0.242
- Z.CTG (ENR+CD organoids; [10]): −0.096
- Z.CTG (ENR+CD organoids; [12]): 0.131
- Z.CTG (ENR+CD organoids; [14]): −0.183
- Dose.FC.CTG (ENR+CD organoids; [15]): −0.101 log2 fold change
- Dose.FC.CTG (ENR+CD organoids; [16]): −0.040 log2 fold change
- Dose.FC.CTG (ENR+CD organoids; [17]): 0.055 log2 fold change
- Dose.FC.CTG (ENR+CD organoids; [18]): −0.076 log2 fold change
- Dose.FC.LYZ.S ([2]; dose 0.08 uM, FC vs plate median): 0.187 log2 fold change
- Dose.FC.LYZ.S ([2]; dose 0.40 uM, FC vs plate median): −0.034 log2 fold change
- Dose.FC.LYZ.S ([2]; dose 2.00 uM, FC vs plate median): 0.042 log2 fold change
- Dose.FC.LYZ.S ([2]; dose 10.00 uM, FC vs plate median): 0.076 log2 fold change

Compound: CCOC(=O)c1ccc(NC2CCCCC2)c(N)c1 [Ferrostatin-1 (Fer-1)]
- Dose.FC.LYZ.NS ([1]; primary screen, dose 0.08 uM): 0.108 log2 fold change
- Dose.FC.LYZ.NS ([1]; primary screen, dose 0.40 uM): 0.116 log2 fold change
- Dose.FC.LYZ.NS ([1]; primary screen, dose 2.00 uM): 0.070 log2 fold change
- Dose.FC.LYZ.NS ([1]; primary screen, dose 10.00 uM): 0.013 log2 fold change
- Z.LYZ.NS [1, 3]: 0.944
- Z.LYZ.NS [1, 4]: 1.012
- Z.LYZ.NS [1, 5]: 0.610
- Z.LYZ.NS [1, 6]: 0.116
- Dose.FC.CTG (ENR+CD organoids; primary screen, dose 0.08 uM): 0.312 log2 fold change
- Dose.FC.CTG (ENR+CD organoids; primary screen, dose 0.40 uM): 0.453 log2 fold change
- Dose.FC.CTG (ENR+CD organoids; primary screen, dose 2.00 uM): 0.215 log2 fold change
- Dose.FC.CTG (ENR+CD organoids; primary screen, dose 10.00 uM): −0.046 log2 fold change
- Z.CTG (ENR+CD organoids; [3]): 0.745
- Z.CTG (ENR+CD organoids; [4]): 1.082
- Z.CTG (ENR+CD organoids; [5]): 0.514
- Z.CTG (ENR+CD organoids; [6]): −0.109
- Dose.FC.LYZ.S ([2]; dose 0.08 uM): 0.120 log2 fold change
- Dose.FC.LYZ.S ([2]; dose 0.40 uM): 0.207 log2 fold change
- Dose.FC.LYZ.S ([2]; dose 2.00 uM): 0.092 log2 fold change
- Dose.FC.LYZ.S ([2]; dose 10.00 uM): −0.018 log2 fold change
